{
  "source": "paper PMC8679839",
  "about": "“Interleukin‐2‐inducible T‐cell kinase (Itk) signaling regulates potent noncanonical regulatory T cells” (Clinical and Translational Medicine, 2021)",
  "origin": "cited, not measured here",
  "test_system": "Tregs",
  "from_the_text": "Tregs are critical for the maintenance of tolerance, and transfer of Treg cells can ameliorate GVHD by restoring defective tolerance mechanisms.[41] One of the biggest challenges is to isolate functional Tregs in large numbers for immunotherapy.[42] This challenge is due to the low number of Tregs in peripheral blood.[4] Given their low numbers in the blood, it is difficult to obtain enough Tregs in the clinic for use as a therapy. If the number of collected canTregs and ncTregs could be increased for use in GVHD patients, such patients could be better protected from GVHD and other autoimmune ...",
  "data": [
    {"smiles": "CO[C@H]1C[C@@H]2CC[C@@H](C)[C@@](O)(O2)C(=O)C(=O)N2CCCC[C@H]2C(=O)O[C@H]([C@H](C)C[C@@H]2CC[C@@H](O)[C@H](OC)C2)CC(=O)[C@H](C)/C=C(\\C)[C@@H](O)[C@@H](OC)C(=O)[C@H](C)C[C@H](C)/C=C/C=C/C=C/1C", "note": "[rapamycin]", "values": [
      {"measurement": "Treg number after in vitro expansion", "value": "increases Tregs"},
      {"measurement": "Treg suppressive function after in vitro expansion", "value": "reduces suppressive function"}
    ]}
  ]
}
